Source: US20090270278A1, “Methods and compounds for making arrays” (AMBERGEN, Inc., priority 2007, published 2009)

Target: T1, protein kinase Cα (PKCα) (Homo sapiens, UniProt P17252)
T1 construct: isolate and photo-release endogenous PKCa from the undiluted detergent fractionated HeLa cell extracts; endogenous in cells; host or cells: HeLa cells (ATCC)
Experiment: PMA-mediated PKCα sub-cellular translocation, measured by kinase activity after isolation with photocleavable antibodies
Type: cell-based
Settings: cultured HeLa cells stimulated with 200 nM PMA for 5 min, detergent-fractionated, based on kinase activity, n=4
Procedure: FIG. 20. Phorbol ester (PMA) mediated protein kinase Cα (PKCα) sub-cellular translocation as measured by functional activity following isolation with photocleavable antibodies. Cultured HeLa cells were stimulated with 200 nM PMA for 5 min and detergent fractionated into the cytosol and membrane compartments prior to isolation and purification with the photocleavable antibodies.
Cultured HeLa cells (ATCC; Manassas, Va.) were stimulated for 5 min with 200 nM Phorbol-12-Myristate-13-Acetate (PMA; EMD Biosciences, Inc., San Diego, Calif.) and subsequently detergent fractionated into sub-cellular compartments according to reported procedures [Ramsby et al. (1994) Electrophoresis 15, 265-277; Ramsby & Makowski. (1999) Methods Mol Biol 112, 53-66; Chiang et al. (2000) J Biochem Biophys Methods 46, 53-68]. PMA is a potent activator of PKCα and is well known to cause translocation of the kinase from the cytosolic to the membrane sub-cellular compartments [Ross & Joyner. (1997) Endothelium 5, 321-332; Bazan & Rapoport. (1996) JPharmacol Toxicol Methods 36, 87-95; Yazlovitskaya & Melnykovych. (1995) Cancer Lett 88, 179-183]. […]

## CCCCCCCCCCCCCC(=O)O[C@@H]1[C@@H](C)[C@@]2(O)[C@@H](C=C(CO)C[C@]3(O)C(=O)C(C)=C[C@@H]23)[C@@H]2C(C)(C)[C@]12OC(C)=O [PMA, Phorbol-12-Myristate-13-Acetate]
Baseline 21±2% membrane
  relative sub-cellular distribution of PKCα, membrane: 84±3%
Baseline 79±7% cytosol
  relative sub-cellular distribution of PKCα, cytosol: 16±4%
